Reference: patent publication US8231869B2, “Recombinant plasmin for opthalmic indications” (priority 2005, dated 2012)
Where two headings read alike, the source gives them in different places. Where a SMILES comes first, the peptide text is derived from it. [ ]: non-standard residue; d: D form. The star is where a group is joined. pNA = O=[N+]([O-])c1ccc(N*)cc1

Key:
[1] = target: human plasmin (full-length; native human plasminogen SEQ ID NO: 4) (Homo sapiens, UniProt P00747); experiment: Amidolytic activity, steady-state kinetics with substrate S-2251; format: biochemical; conditions: substrate S-2251, PBS buffer, pH 7.4, 25° C.
[2] = target: human micro-plasmin (plasmin lacking all five kringles) (Homo sapiens, UniProt P00747); experiment: as above; format: biochemical; conditions: substrate S-2251, PBS buffer, pH 7.4, 25° C.
[3] = target: delta-plasmin (recombinant human plasmin deletion mutant, kringle 1-serine protease domain, deletion of K2-5; from delta-plasminogen SEQ ID NO: 2) (Homo sapiens, UniProt P00747, DELINS146-524/G536N/G539Q/K528E/L551R/N547D/P558L/Q559E/R549E/V538P/V557I); experiment: as above; format: biochemical; conditions: substrate S-2251, PBS buffer, pH 7.4, 25° C.
[4] = target: kringle 1 (of human plasminogen); conditions: literature value, et al., read-out: kringle 1 affinity for εACA (Kd), cited from earlier work
[5] = substrate: CC(C)C[C@H](NC(=O)[C@H](N)C(C)C)C(=O)N[C@@H](CCCCN)C(=O)Nc1ccc([N+](=O)[O-])cc1; experiment: purified protein, by the assay type; format: biochemical, human; conditions: other: substrate S-2251, PBS buffer, pH 7.4, 25° C.

delta-plasmin (recombinant human plasmin deletion mutant, kringle 1-serine protease domain, deletion of K2-5; from delta-plasminogen SEQ ID NO: 2), sequence (P00747 with tags, fused parts or gaps K528E/G536N/V538P/G539Q/N547D/R549E/L551R/V557I/P558L/Q559E limits assumed): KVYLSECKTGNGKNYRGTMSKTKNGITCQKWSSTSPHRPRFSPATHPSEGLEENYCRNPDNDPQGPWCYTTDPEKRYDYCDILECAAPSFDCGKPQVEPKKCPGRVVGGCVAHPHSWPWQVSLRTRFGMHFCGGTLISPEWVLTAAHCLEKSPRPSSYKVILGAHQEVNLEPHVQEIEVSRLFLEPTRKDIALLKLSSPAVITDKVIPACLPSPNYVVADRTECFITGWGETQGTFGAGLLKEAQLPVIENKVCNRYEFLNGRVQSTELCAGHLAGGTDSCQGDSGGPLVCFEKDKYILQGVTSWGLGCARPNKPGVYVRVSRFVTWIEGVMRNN
human plasmin (full-length; native human plasminogen SEQ ID NO: 4), sequence (P00747 97-580 partner limits assumed, one chain of several): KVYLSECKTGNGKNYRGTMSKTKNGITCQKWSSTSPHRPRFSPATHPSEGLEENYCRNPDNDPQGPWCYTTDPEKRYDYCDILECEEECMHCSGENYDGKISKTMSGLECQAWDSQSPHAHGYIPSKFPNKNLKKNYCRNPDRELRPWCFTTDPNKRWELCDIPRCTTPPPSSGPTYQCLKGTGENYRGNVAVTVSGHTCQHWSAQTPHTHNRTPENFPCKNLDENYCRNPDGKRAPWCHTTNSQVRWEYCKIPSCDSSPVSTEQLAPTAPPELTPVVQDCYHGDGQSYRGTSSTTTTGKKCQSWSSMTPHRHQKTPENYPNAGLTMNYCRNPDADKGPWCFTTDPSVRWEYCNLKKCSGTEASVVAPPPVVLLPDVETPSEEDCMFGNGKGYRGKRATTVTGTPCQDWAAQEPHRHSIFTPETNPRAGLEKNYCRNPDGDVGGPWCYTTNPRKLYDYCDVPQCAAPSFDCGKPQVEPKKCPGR

Row | Molecule | Km [5] | kcat [5] | further results
1 | CC(C)C[C@H](NC(=O)[C@H](N)C(C)C)C(=O)N[C@@H](CCCCN)C(=O)Nc1ccc([N+](=O)[O-])cc1 [S-2251, D-Val-Leu-Lys-p-nitroanilide] (H-[dV]-Leu-Lys-pNA) |  |  | kcat [1]: 12.7 ± 0.383 s⁻¹; kcat [2]: 13.2 ± 0.4 s⁻¹; kcat ([3]; corrected for percent active sites (67%, PNPGB titration)): 12.6 ± 0.75 s⁻¹; kcat (for the preparation) ([3]; not corrected for percent active sites): 8.5 s⁻¹
2 | NCCCCCC(=O)O [εACA, ε-aminocaproic acid] |  |  | Kd ([4]; Douglas): 13 µM; Kd ([4]; Matsuka): 3.2 µM
3 | human plasmin (full-length; native human plasminogen SEQ ID NO: 4) (Homo sapiens) (protein, The C-terminal light chain of plasmin (residues 562-791); The amino-terminal heavy chain of plasmin) VVGGCVAHPHSWPWQVSLRTRFGMHFCGGTLISPEWVLTAAHCLEKSPRPSSYKVILGAHQEVNLEPHVQEIEVSRLFLEPTRKDIALLKLSSPAVITDKVIPACLPSPNYVVADRTECFITGWGETQGTFGAGLLKEAQLPVIENKVCNRYEFLNGRVQSTELCAGHLAGGTDSCQGDSGGPLVCFEKDKYILQGVTSWGLGCARPNKPGVYVRVSRFVTWIEGVMRNN | 193 +/− 7 μM μM | 760 +/− 23 min^−1 min^−1 | 
4 | human micro-plasmin (plasmin lacking all five kringles) (Homo sapiens) (protein, micro-plasmin (lacking all five kringles)) VVGGCVAHPHSWPWQVSLRTRFGMHFCGGTLISPEWVLTAAHCLEKSPRPSSYKVILGAHQEVNLEPHVQEIEVSRLFLEPTRKDIALLKLSSPAVITDKVIPACLPSPNYVVADRTECFITGWGETQGTFGAGLLKEAQLPVIENKVCNRYEFLNGRVQSTELCAGHLAGGTDSCQGDSGGPLVCFEKDKYILQGVTSWGLGCARPNKPGVYVRVSRFVTWIEGVMRNN | 145 +/− 13 μM μM | 795 +/− 24 min^−1 min^−1 | 
5 | human mini-plasmin (plasmin fragment, domain composition K5-SP; mini-plasminogen residues Val443-Asn791) (Homo sapiens) (protein, includes residues Val443-Asn791 and consists of the fifth kringle and the serine protease domain) VVGGCVAHPHSWPWQVSLRTRFGMHFCGGTLISPEWVLTAAHCLEKSPRPSSYKVILGAHQEVNLEPHVQEIEVSRLFLEPTRKDIALLKLSSPAVITDKVIPACLPSPNYVVADRTECFITGWGETQGTFGAGLLKEAQLPVIENKVCNRYEFLNGRVQSTELCAGHLAGGTDSCQGDSGGPLVCFEKDKYILQGVTSWGLGCARPNKPGVYVRVSRFVTWIEGVMRNN | 160 +/− 30 μM μM | 770 +/− 70 min^−1 min^−1 | 
